Experimental data as given in patent EP0551662A1, “Benzofuranyl- and thiophenylmethylthio-alcanecarboxylic acid derivatives” (BAYER AG, priority 1992, dated 1993).

Columns and labels:
[1] = system: polymorphonuclear granulocytes; assay: FMLP-induced chemiluminescence of polymorphonuclear granulocytes (inhibition of FMLP-stimulated production of superoxide radical anions); assay type: cell-based; settings: human PMN
Description: 1. Preparation of human PMN Blood was taken from healthy subjects by venous puncture and neutrophils were purified by dextran sedimentation and resuspended in the buffered medium. 2. Inhibition of FMLP-stimulated production of superoxide radical anions. Neutrophils (2.5 × 10⁵ ml⁻¹) were mixed with the compounds according to the invention in dimethyl sulphoxide (DMSO), the final concentration of the compounds according to the invention being 10 µM and the DMSO concentration being 1% v/v. After addition of luminol, final concentration about 10⁻⁵M and 33 µg/ml of cytochalasin B, the cells were stimulated with a final concentration of about 5 × 10⁻⁸ M FMLP. Measurement of the chemiluminescence peaks was carried out using an LKB 1251 luminometer. The inhibition of the superoxide and the reduction of cytochrome C by FMLP-stimulated cells was likewise measured. Neutrophils (2.6 × 10⁵ ml⁻¹) were mixed with the compounds according to the invention as in the chemiluminescence experiment. Cytochrome C with a concentration of […] is also present. The superoxide-dependent cytochrome C reduction was measured using a Molecular Devices Thermomax plate reader. The inhibition of superoxide production was calculated as follows: [formula] […]

mitochondrial fraction = assay: Mitochondrial substrate oxidation assay (oxygen electrode); assay type: biochemical; settings: NADPH oxidation by mitochondria, final concentration of 300 µM of the test substance, guinea pig hearts
Description: 7. Mitochondrial substrate oxidation assay A mitochondrial fraction was prepared from finely-cut guinea pig hearts. […] The compounds according to the invention were tested to gauge their inhibition of cell respiration by measurement of their effect on the oxidation of these two substances at a concentration of up to 100 µg/ml⁻¹. % inhibition of NADPH oxidation by mitochondria at a final concentration of 300 µM of the test substance Table C

NADPH oxidase = target: T1, NADPH oxidase (Homo sapiens, UniProt P04839); assay: NADPH oxidase assay in membrane fractions of PMA-stimulated neutrophils; assay type: biochemical; settings: final concentration of 33 µM of the test substance
T1 construct: endogenous in cells; host or cells: neutrophils, PMA-stimulated, sonicated; membrane fraction
T1 sequence (P04839 2-570 limits assumed): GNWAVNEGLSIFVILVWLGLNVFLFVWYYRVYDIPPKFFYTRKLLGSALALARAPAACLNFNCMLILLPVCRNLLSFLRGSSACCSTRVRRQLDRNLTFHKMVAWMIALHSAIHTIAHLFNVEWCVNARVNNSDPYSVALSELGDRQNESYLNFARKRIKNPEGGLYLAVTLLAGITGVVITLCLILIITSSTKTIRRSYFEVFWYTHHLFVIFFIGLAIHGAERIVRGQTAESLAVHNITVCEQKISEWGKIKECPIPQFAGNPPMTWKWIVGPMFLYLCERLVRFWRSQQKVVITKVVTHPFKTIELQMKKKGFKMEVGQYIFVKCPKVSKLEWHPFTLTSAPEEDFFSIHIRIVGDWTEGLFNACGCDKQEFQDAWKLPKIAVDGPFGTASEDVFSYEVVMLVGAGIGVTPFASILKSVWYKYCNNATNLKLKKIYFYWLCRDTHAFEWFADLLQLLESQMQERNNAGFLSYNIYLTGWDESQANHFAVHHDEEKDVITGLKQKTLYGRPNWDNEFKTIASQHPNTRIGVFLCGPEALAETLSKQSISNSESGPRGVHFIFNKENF
T1 sequence (P13498 2-195 partner limits assumed): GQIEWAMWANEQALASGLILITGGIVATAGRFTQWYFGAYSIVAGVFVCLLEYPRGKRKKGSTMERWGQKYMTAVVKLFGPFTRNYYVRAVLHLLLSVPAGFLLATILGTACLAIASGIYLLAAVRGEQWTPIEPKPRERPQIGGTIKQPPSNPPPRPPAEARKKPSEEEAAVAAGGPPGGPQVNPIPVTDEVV
Description: 3. Inhibition of myeloperoxidase The compounds according to the invention were tested for their action on human neutrophil myeloperoxidase activity by the established method of Bos, A.J. et al., Infection and Immunity, 1981, 32 (2), 427-431. 4. Xanthine oxidase assay Equal parts of the substrate (7.5 mM hypoxanthine) were incubated at 25°C with the compounds according to the invention or carrier, and 10⁻⁵ M luminol and the enzyme xanthine oxidase were added immediately before starting the luminescence measurement. The formation of superoxide was then measured for 140 sec in the 1251 luminometer. The activity was in each case measured against xanthine oxidase in the presence or absence of the compounds according to the invention by monitoring the growth of the absorption at 292 nm due to the formation of uric acid. 5. Determination of the specificity When neutrophils are activated by PMA or FMLP, they release the lysosomal enzyme beta-glucuronidase. […] Using a concentration of 10⁶ cells ml⁻¹, the compounds according to the invention were tested in parallel using a cell preparation thereof to gauge their capability to inhibit FMLP-induced superoxide production and FMLP-induced beta-glucuronidase release. 6. NADPH oxidase assay Neutrophils were stimulated with PMA and treated with ultrasound, and a membrane fraction was prepared. […]

| IC50 ([1]; read-out: IC₅₀) [nM] | inhibition at 33 µM (NADPH oxidase) [%] | Compound | inhibition at 10 µM ([1]; 10 µM of the test substance) [%] | % inhibition (mitochondrial respiration) (mitochondrial fraction) [%] |
| --- | --- | --- | --- | --- |
| 700 | 21 ± 7 | COc1ccc(C(=O)c2oc3ccccc3c2CSCCC(=O)O)cc1C(=O)NS(=O)(=O)c1ccccc1C [Example 17, 2-[4-Methoxy-3-(2-tolylsulphonamide-carbonyl)-benzoyl]-3-[(2-carboxyethyl)thiomethyl]benzo[b]furan] | 96 ± 2 | 24 ± 2 |
|  | 20 | COc1ccc(C(=O)c2oc3ccccc3c2CSCCC(=O)O)cc1C(=O)O [Example 31] |  | 0 ± 7 |
